Like-named read-outs stand apart in the source and are kept apart here.
Assays:
Format in all cases: cell-based
[1] = tested on: HCV 2a Rluc cells (NS5A chimeric genotype 2a JFH-1 replicon with genotype 2a J6 strain NS5A gene, M31 present); assay: HCV replicon reporter assay, genotype 2a J6 (M31 present); details: Hepatitis C virus, read-out: 2a J6
Method in brief: (§1)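 Renilla luciferase HCV replicon cells: dicistronic 1b Con1, 1a H77 or 2a JFH-1 replicons, or a JFH-1 chimera carrying J6 NS5A (M31 present). Compound in DMSO serial dilutions, 72 h incubation, then lysis and luciferase read. EC50 by non-linear regression.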

[2] = tested on: HCV 2b Rluc cells (NS5A chimeric genotype 2a JFH-1 replicon with genotype 2b MD2b-1 NS5A gene, M31 present); assay: microbe, parasite or virus in culture; details: Hepatitis C virus, read-out: 2b
Method in brief: (§2)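 Replicon cells stably carrying the listed RLuc-encoding dicistronic replicons were seeded and treated with DMSO serial dilutions of compound (10 mM stocks) diluted into culture medium. After 72 h, cells were lysed and Renilla luciferase activity measured. EC50 was derived by non-linear regression.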

[3] = tested on: HCV 1a RLuc cells (dicistronic genotype 1a H77 replicon, RLuc reporter); assay: microbe, parasite or virus in culture; details: Hepatitis C virus, read-out: 1a
Method in brief: as §1

[4] = tested on: HCV 2a JFH-1 Rluc cells (dicistronic genotype 2a JFH-1 replicon, RLuc reporter); assay: microbe, parasite or virus in culture; details: Hepatitis C virus, genotype 2a JFH-1 replicon, read-out: 2a JFH
Method in brief: as §1

[5] = tested on: HCV 3a RLuc cells (NS5A chimeric genotype 1b Con1 replicon with consensus genotype 3a NS5A gene); assay: microbe, parasite or virus in culture; details: Hepatitis C virus
Method in brief: as §2

[6] = tested on: HCV 1b RLuc cells (dicistronic genotype 1b Con1 replicon, RLuc reporter); assay: microbe, parasite or virus in culture; details: Hepatitis C virus, read-out: 1b (nM)
Method in brief: as §1

[7] = tested on: HCV 4a Rluc cells (NS5A chimeric genotype 1b Con1 replicon with genotype 4a NS5A gene); assay: microbe, parasite or virus in culture; details: Hepatitis C virus, read-out: 4a
Method in brief: as §2

[8] = read-out: 3a, genotype 3a replicon

| SMILES | EC50 [1] | EC50 [2] | EC50 ([3]; genotype 1a replicon) | EC50 [4] | EC50 [5, 8] | EC50 [6] | EC50 [7] | EC50 ([3]; genotype 1a H77 replicon, RLuc reporter) | EC50 ([4]; RLuc reporter) | EC50 ([5]; read-out: 3a, genotype 3a NS5A chimeric 1b Con1 replicon) | EC50 ([3]; 72 h, Table 1, genotype 1a H77 replicon, 72 hours) | EC50 ([4]; 72 h, Table 1, 72 hours) | EC50 ([5]; read-out: 3a, Table 1, genotype 3a NS5A chimeric replicon) | EC50 ([6]; 72 h) |
| --- | --- | --- | --- | --- | --- | --- | --- | --- | --- | --- | --- | --- | --- | --- |
| COC(=O)N[C@H](C(=O)N1CCC[C@H]1c1nc2ccc3cc(-c4ccc5c(ccc6nc([C@@H]7CCCN7C(=O)[C@H](NCC(F)(F)F)c7ccccc7)[nH]c65)c4)ccc3c2[nH]1)C(C)C [Example 403] | 0.001 to 0.999 nM | 0.001 to 0.999 nM | 0.001 to 0.999 nM | 0.001 to 0.999 nM | 0.001 to 0.99 nM | 0.014 nM | 0.001 to 0.99 nM | – | – | – | – | – | – | – |
| COC(=O)N[C@H](C(=O)N1CCC[C@H]1c1ncc(-c2ccc3cc(-c4ccc(-c5cnc([C@@H]6CC(F)(F)CN6C(=O)[C@H](NC(=O)OC)c6ccccc6)[nH]5)cc4)ccc3c2)[nH]1)C(C)C [Example 260] | > 44 nM | > 44 nM | – | – | – | 0.004 nM | 0.001 to 0.99 nM | 0.001 to 0.999 nM | 0.001 to 0.999 nM | 0.001 to 0.99 nM | – | – | – | – |
| COC[C@H]1C[C@@H](c2nc3ccc4cc(-c5ccc(-c6cnc([C@@H]7CCCN7C(=O)[C@H](NC(=O)OC)c7ccccc7)[nH]6)cc5)ccc4c3[nH]2)N(C(=O)[C@@H](NC(=O)OC)C(C)C)C1 [Example 415] | 0.001 to 0.999 nM | 0.001 to 0.999 nM | 0.001 to 0.999 nM | 0.001 to 0.999 nM | 0.001 to 0.99 nM | 0.034 nM | 0.001 to 0.99 nM | – | – | – | – | – | – | – |
| O=C(C(c1ccccc1)N1CCCOCC1)N1CCC[C@H]1c1ncc(-c2cc3c4c(c2)OCc2cc(-c5cnc([C@@H]6CCCN6C(=O)C(c6ccccc6)N6CCCOCC6)[nH]5)cc(c2-4)OC3)[nH]1 (some centres unmarked) [Example 445] | 1 to 44 nM | 1 to 44 nM | 1 to 44 nM | 0.001 to 0.999 nM | 0.001 to 0.99 nM | 0.336 nM | 0.001 to 0.99 nM | – | – | – | – | – | – | – |
| COC(=O)N[C@H](C(=O)N1[C@@H]2CC[C@@H](C2)[C@H]1c1nc2ccc3cc(-c4ccc5c(ccc6nc([C@@H]7CCCN7C(=O)[C@H](NC(=O)C(C)(C)O)c7ccccc7)[nH]c65)c4)ccc3c2[nH]1)C(C)C [Example 357] | 0.001 to 0.999 nM | 0.001 to 0.999 nM | 0.001 to 0.999 nM | 0.001 to 0.999 nM | 0.001 to 0.99 nM | 0.044 nM | 0.001 to 0.99 nM | – | – | – | – | – | – | – |
| CC[C@H](NC(=O)OC)C(=O)N1CCC[C@H]1c1ncc(-c2ccc3c4c(ccc3c2)-c2ccc(-c3cnc([C@@H]5CCCN5C(=O)[C@H](NC(=O)OC)c5ccccc5)[nH]3)cc2CO4)[nH]1 [Example 12] | > 44 nM | > 44 nM | – | – | – | – | 0.001 to 0.99 nM | – | – | – | 0.001 to 0.999 nM | 0.001 to 0.999 nM | 0.001 to 0.99 nM | 0.008 nM |
| CNC(=O)N[C@@H](C(=O)N1CCC[C@H]1c1ncc(-c2cc3c4c(c2)OCc2cc(-c5cnc([C@@H]6CCCN6C(=O)[C@H](NC(=O)NC)c6ccccc6)[nH]5)cc(c2-4)OC3)[nH]1)c1ccccc1 [Example 447] | 0.001 to 0.999 nM | 0.001 to 0.999 nM | 1 to 44 nM | 0.001 to 0.999 nM | 0.001 to 0.99 nM | 2.05 nM | 0.001 to 0.99 nM | – | – | – | – | – | – | – |
| COC(=O)N[C@H](C(=O)N1CCC[C@H]1c1nc(Cl)c(-c2ccc(-c3ccc4c(ccc5nc([C@@H]6[C@H]7CC[C@H](C7)N6C(=O)[C@@H](NC(=O)OC)C(C)C)[nH]c54)c3)cc2)[nH]1)C(C)C [Example 386] | > 44 nM | > 44 nM | 0.001 to 0.999 nM | 0.001 to 0.999 nM | 0.001 to 0.99 nM | 0.015 nM | 0.001 to 0.99 nM | – | – | – | – | – | – | – |

Source: US10344019B2 (priority 2010, dated 2019)
